In one test the target is T1, ROCK I (AA 6-553) (Homo sapiens, UniProt Q13464).
T1 construct: ROCK I (AA 6-553)
The test is described as follows: ROCK inhibition assay, standard coupled enzyme system ("Enzyme"). It is filed as biochemical. The settings on record: enzyme-linked assay. The protocol:
Compounds were screened for their ability to inhibit ROCK I (AA 6-553) activity using a standard coupled enzyme system (Fox et al. (1998) Protein Sci. 7, 2249). Reactions were carried out in a solution containing 100 mM HEPES (pH 7.5), 10 mM MgCl2, 25 mM NaCl, 2 mM DTT and 1.5% DMSO. Final substrate concentrations in the assay were 45 μM ATP (Sigma Chemicals, St Louis, Mo.) and 200 μM peptide (American Peptide, Sunnyvale, Calif.). Reactions were carried out at 30° C. and 45 nM ROCK L. Final concentrations of the components of the coupled enzyme system were 2.5 mM phosphoenolpyruvate, 350 μM NADH, 30 μg/ml pyruvate kinase and 10 μg/ml lactate dehydrogenase.

For test [1], the target named is T2, full length Aurora-A (AA 1-403) (Homo sapiens, UniProt O14965).
T2 construct: full length Aurora-A (AA 1-403)
T2 sequence (O14965 1-403): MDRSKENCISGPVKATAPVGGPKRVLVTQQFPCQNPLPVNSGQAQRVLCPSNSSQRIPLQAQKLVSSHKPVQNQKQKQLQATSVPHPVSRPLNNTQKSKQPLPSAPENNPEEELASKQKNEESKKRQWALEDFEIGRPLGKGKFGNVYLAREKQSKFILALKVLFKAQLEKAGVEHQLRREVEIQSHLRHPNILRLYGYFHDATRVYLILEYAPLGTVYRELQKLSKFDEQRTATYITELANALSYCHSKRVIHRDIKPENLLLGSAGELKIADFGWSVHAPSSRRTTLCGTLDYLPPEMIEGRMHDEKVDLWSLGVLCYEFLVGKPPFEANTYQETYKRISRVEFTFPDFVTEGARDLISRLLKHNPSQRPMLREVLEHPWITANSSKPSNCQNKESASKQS
Put plainly: Aurora-A inhibition assay, standard coupled enzyme system. It is filed as biochemical. Particulars: average Ki if more than one value determined. The protocol: Compounds were screened for their ability to inhibit full length Aurora-A (AA 1-403) activity using a standard coupled enzyme system (Fox et al., Protein Sci. 7, pp. 2249 (1998)). Reactions were carried out in a solution containing 100 mM HEPES (pH 7.5), 10 mM MgCl2, 25 mM NaCl, 300 μM NADH, 1 mM DTT and 3% DMSO. Final substrate concentrations in the assay were 200 μM ATP (Sigma Chemicals, St Louis, Mo.) and 800 μM peptide (LRRASLG, American Peptide, Sunnyvale, Calif.). Reactions were carried out at 30° C. and 35 nM Aurora-A. Final concentrations of the components of the coupled enzyme system were 2.5 mM phosphoenolpyruvate, 200 μM NADH, 60 μg/ml pyruvate kinase and 20 μg/ml lactate dehydrogenase.
An assay stock buffer solution was prepared containing all of the reagents listed above with the exception of ATP and the test compound of interest. The assay stock buffer solution (60 μl) was incubated in a 96 well plate with 2 μl of the test compound of interest at final concentrations spanning 0.002 μM to 30 μM at 30° C. for 10 min. Typically, a 12 point titration was conducted by preparing serial dilutions (from 1 mM compound stocks) with DMSO of the test compounds in daughter plates. The reaction was initiated by the addition of 5 μl of ATP (final concentration 200 μM). Rates of reaction were obtained using a Molecular Devices Spectramax plate reader (Sunnyvale, Calif.) over 10 min at 30° C. The Ki values were determined from the rate data as a function of inhibitor concentration using computerized nonlinear regression (Prism 3.0, Graphpad Software, San Diego, Calif.). Aurora-C activity was screened in a similar manner using Aurora-C protein. Aurora-B activity was screened using a radioactive assay, such as described in Examples 1 and 2, but using Aurora-B protein.

We go through 37 molecules from patent US8501446B2 (Vertex Pharmaceuticals Incorporated, priority 2004, dated 2013).

The term Ki denotes the equilibrium dissociation constant of an inhibitor or competing ligand from its target.

T1 sequence (Q13464 6-553, species assumed): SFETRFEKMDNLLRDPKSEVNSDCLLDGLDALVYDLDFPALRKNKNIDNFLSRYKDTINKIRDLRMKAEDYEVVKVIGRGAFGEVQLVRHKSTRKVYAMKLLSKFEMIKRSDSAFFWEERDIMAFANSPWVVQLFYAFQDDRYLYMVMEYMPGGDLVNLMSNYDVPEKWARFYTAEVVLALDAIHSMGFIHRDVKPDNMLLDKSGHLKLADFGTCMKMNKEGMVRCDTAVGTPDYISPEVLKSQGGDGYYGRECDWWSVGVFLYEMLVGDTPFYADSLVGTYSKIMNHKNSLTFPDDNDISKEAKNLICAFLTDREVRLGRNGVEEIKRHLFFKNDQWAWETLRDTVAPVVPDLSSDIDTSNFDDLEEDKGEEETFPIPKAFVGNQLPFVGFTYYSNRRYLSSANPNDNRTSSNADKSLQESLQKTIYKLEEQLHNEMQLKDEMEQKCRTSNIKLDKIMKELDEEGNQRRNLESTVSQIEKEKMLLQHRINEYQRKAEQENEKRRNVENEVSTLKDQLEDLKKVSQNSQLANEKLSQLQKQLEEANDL

As to `O=C(Nc1cccc(-c2c[nH]c3ncc(Cl)cc23)n1)c1cccnc1` [Compound 296], the inhibition constant (Ki) was 500 to 5000 nM on ROCK I (AA 6-553) and less than 500 nM in test [1].

For the molecule `CN1CCN(c2cccc(-c3c[nH]c4ncc(Cl)cc34)n2)CC1` [Compound 275], the inhibition constant (Ki) (at ROCK I (AA 6-553); in test [1]) was 500 to 5000 nM throughout.

For the molecule `Fc1ccc(-c2cnc3[nH]cc(-c4ccc(F)cc4)c3c2)cc1` [Compound 223], the inhibitory constant (Ki) (on ROCK I (AA 6-553); in test [1]) was 500 to 5000 nM in each case.

For `O=C(Nc1cccc(-c2c[nH]c3ncc(Cl)cc23)n1)c1ccccn1` [Compound 294], the Ki is 500 to 5000 nM on ROCK I (AA 6-553) and less than 500 nM in test [1].

For the molecule `CCOc1cnc(-c2c[nH]c3ncc(Cl)cc23)nc1N[C@@H](C)C(=O)NCC(F)(F)F` [Compound 408], the values for the Ki (at ROCK I (AA 6-553); in test [1]) were 500 to 5000 nM and less than 500 nM, respectively.

Take `NC(=O)c1ccc(-c2c[nH]c3ncc(-c4ccoc4)cc23)cc1` [Compound 235]: the Ki (on ROCK I (AA 6-553); in test [1]) was less than 500 nM in each case.

In the case of `COC(=O)c1cc(F)c(N[C@@H](C)c2ccc(F)cc2)nc1-c1c[nH]c2ncc(Cl)cc12` [Compound 396], the Ki on ROCK I (AA 6-553) is 500 to 5000 nM; in test [1] it was less than 500 nM.

On to `O=Cc1cc(-c2c[nH]c3ncc(Cl)cc23)nc(N2CCNCC2)c1` [Compound 409], for which the Ki (at ROCK I (AA 6-553); in test [1]) was less than 500 nM each time.

Consider `Fc1cnc(-c2c[nH]c3ncc(Cl)cc23)nc1NCC1CCOC1` (centres unmarked) [Compound 373], for which the figures for the Ki (on ROCK I (AA 6-553); in test [1]) were 500 to 5000 nM and less than 500 nM, respectively.

For `Clc1cnc2[nH]cc(-c3cccc(NCCc4ccccc4)n3)c2c1` [Compound 264], the results for the Ki (at ROCK I (AA 6-553); in test [1]) were 500 to 5000 nM and less than 500 nM, respectively.

For `C[C@H](Nc1nc(-c2c[nH]c3ncc(Cl)cc23)ncc1F)C(=O)O` [Compound 360], the Ki (on ROCK I (AA 6-553); in test [1]) was 500 to 5000 nM in each case.

With `Clc1cnc2[nH]cc(-c3cccc(Br)n3)c2c1` [Compound 240], the Ki was 500 to 5000 nM on ROCK I (AA 6-553) and less than 500 nM in test [1].

As to `NC(=O)c1cccc(-c2c[nH]c3ncc(-c4ccc(F)cc4)cc23)c1` [Compound 228], the Ki (on ROCK I (AA 6-553); in test [1]) was less than 500 nM throughout.

Turning to `C[C@H](Nc1nc(-c2c[nH]c3ncc(Cl)cc23)ncc1F)C(=O)NCCS(C)(=O)=O` [Compound 389], the Ki at ROCK I (AA 6-553) was 500 to 5000 nM; in test [1] it was less than 500 nM.

`COc1ccc(CNc2cccc(-c3c[nH]c4ncc(Cl)cc34)n2)cc1` [Compound 258]: the Ki on ROCK I (AA 6-553) was 500 to 5000 nM; in test [1], less than 500 nM.

Take `CNC(=O)[C@H](CC(C)C)Nc1nc(-c2c[nH]c3ncc(Cl)cc23)ncc1F` [Compound 393]: the figures for the Ki (at ROCK I (AA 6-553); in test [1]) were 500 to 5000 nM and less than 500 nM, respectively.

Turning to `CC(=O)NCc1ccc(-c2c[nH]c3ncc(-c4ccccc4)cc23)cc1` [Compound 230], the Ki (on ROCK I (AA 6-553); in test [1]) was 500 to 5000 nM each time.

`C[C@H](Nc1nc(-c2c[nH]c3ncc(C#CCO)cc23)ncc1F)c1ccc(F)cc1` [Compound 378]: the Ki on ROCK I (AA 6-553) was 500 to 5000 nM; in test [1], less than 500 nM.

With `CS(=O)(=O)c1cccc(-c2c[nH]c3ncc(-c4ccc(F)cc4)cc23)c1` [Compound 221], the Ki (on ROCK I (AA 6-553); in test [1]) was less than 500 nM throughout.

Regarding `C[C@@H](Nc1nc(-c2c[nH]c3ncc(Cl)cc23)ncc1F)c1ccc(N)cc1` [Compound 313], the Ki on ROCK I (AA 6-553) was 500 to 5000 nM; in test [1] it was less than 500 nM.

On to `COc1ccc(CNc2cccc(-c3c[nH]c4ncc(Cl)cc34)n2)cc1OC` [Compound 297], for which the Ki at ROCK I (AA 6-553) is 500 to 5000 nM; in test [1] it was less than 500 nM.

`C[C@H](Nc1nc(-c2c[nH]c3ncc(Br)cc23)ncc1F)c1ccc(F)cc1` [Compound 357]: the Ki was 500 to 5000 nM on ROCK I (AA 6-553) and less than 500 nM in test [1].

`CCNC(=O)[C@H](C)Nc1nc(-c2c[nH]c3ncc(Cl)cc23)ncc1F` [Compound 367]: the Ki on ROCK I (AA 6-553) is 500 to 5000 nM; in test [1], less than 500 nM.

Regarding `Clc1ccc(CNc2cccc(-c3c[nH]c4ncc(-c5ccccc5)cc34)n2)cc1Cl` [Compound 261], the Ki (at ROCK I (AA 6-553); in test [1]) was 500 to 5000 nM in each case.

With `CNS(=O)(=O)c1ccc(-c2cnc3[nH]cc(-c4ccc(C(N)=O)cc4)c3c2)cc1` [Compound 256], the Ki (at ROCK I (AA 6-553); in test [1]) was less than 500 nM throughout.

`OCCNc1cccc(-c2c[nH]c3ncc(Cl)cc23)n1` [Compound 270]: the inhibitory constant (Ki) (on ROCK I (AA 6-553); in test [1]) was 500 to 5000 nM in each case.

For the molecule `Clc1cnc2[nH]cc(-c3cccc(Sc4ccccc4Cl)n3)c2c1` [Compound 248], the Ki was 500 to 5000 nM on ROCK I (AA 6-553) and less than 500 nM in test [1].

On to `CCCCNC(=O)c1cccc(-c2c[nH]c3ncc(-c4ccccc4)cc23)c1` [Compound 220], for which the Ki (at ROCK I (AA 6-553); in test [1]) was 500 to 5000 nM throughout.

Turning to `Cc1ccc(CNc2cccc(-c3c[nH]c4ncc(-c5ccccc5)cc34)n2)cc1` [Compound 262], the Ki (at ROCK I (AA 6-553); in test [1]) was 500 to 5000 nM each time.

Take `CNc1cccc(-c2cn(C)c3ncc(Cl)cc23)n1` [Compound 292]: the results for the Ki (on ROCK I (AA 6-553); in test [1]) were 500 to 5000 nM and more than 5000 nM, respectively.

For `c1ccc(-c2cnc3[nH]cc(-c4cccc(N5CCCC5)n4)c3c2)cc1` [Compound 293], the Ki (at ROCK I (AA 6-553); in test [1]) was 500 to 5000 nM throughout.

Consider `CC(C)NC(=O)[C@H](C)Nc1nc(-c2c[nH]c3ncc(Cl)cc23)ncc1F` [Compound 363], for which the Ki was 500 to 5000 nM at ROCK I (AA 6-553) and less than 500 nM in test [1].

As to `CC(C)CNC(=O)[C@H](C)Nc1nc(-c2c[nH]c3ncc(Cl)cc23)ncc1F` [Compound 364], the values for the inhibition constant (Ki) (at ROCK I (AA 6-553); in test [1]) were 500 to 5000 nM and less than 500 nM, respectively.

For the molecule `Nc1ccc(-c2c[nH]c3ncc(-c4ccccc4)cc23)cc1` [Compound 232], the Ki on ROCK I (AA 6-553) was 500 to 5000 nM; in test [1], less than 500 nM.

Take `Clc1cnc2[nH]cc(-c3cccc(NCc4ccc(Cl)c(Cl)c4)n3)c2c1` [Compound 251]: the Ki on ROCK I (AA 6-553) was 500 to 5000 nM; in test [1], less than 500 nM.

Regarding `C[C@@H](CC(=O)O)Nc1nc(-c2c[nH]c3ncc(Cl)cc23)ncc1F` [Compound 401], the Ki was 500 to 5000 nM on ROCK I (AA 6-553) and less than 500 nM in test [1].

Take `CNC(=O)C[C@H](C)Nc1nc(-c2c[nH]c3ncc(Cl)cc23)ncc1F` [Compound 402]: the Ki (on ROCK I (AA 6-553); in test [1]) was 500 to 5000 nM each time.
